Source: patent US20240010606A1, “FUMARATE DERIVATIVES AND THEIR MEDICAL USE” (Sitryx Therapeutics Limited, priority 2020, published 2024)

Experiments:
[1] = test system: IL-6; experiment: THP-1 AlphaLISA IL-6 cytokine assay; format: cell-based; details: Homo sapiens, THP-1, differentiated THP-1 cells
Protocol: Biological Example 1—THP-1 AlphaLISA IL-1β and IL-6 Cytokine Assay Measuring Inhibitory Effects on IL-1, and IL-6 Cytokine Output from THP-1s The cytokine inhibition profiles of compounds of formula (I) were determined in a differentiated THP-1 cell assay. All assays were performed in RPMI-1640 growth medium (Gibco), supplemented with 10% fetal bovine serum (FBS; Gibco), 1% penicillin-streptomycin and 1% sodium pyruvate unless specified otherwise. The IL-1β and IL-6 cytokine inhibition assays were each run in a background of differentiated THP-1 cells as described below. All reagents described were from Sigma-Aldrich unless specified otherwise. Compounds were prepared as 10 mM DMSO stocks. THP-1 cells were expanded as a suspension up to 80% confluence in appropriate growth medium. Cells were harvested, suspended, and treated with an appropriate concentration of phorbol 12-myristate 13-acetate (PMA) over a 72 hr period (37° C./5% CO2). Following 72 hrs of THP-1 cell incubation, cellular medium was removed and replaced with fresh growth media containing 1% of FBS. Working concentrations of compounds were prepared separately in 10% FBS treated growth medium and pre-incubated with the cells for 30 minutes (37° C./5% CO2). Following the 30 minute compound pre-incubation, THP-1s were treated with an appropriate concentration of LPS and the THP-1s were subsequently incubated for a 24 hr period (37° C./5% CO2). An appropriate final concentration of Nigericin was then dispensed into the THP-1 plates and incubated for 1 hour (37° C./5% CO2) before THP-1 supernatants were harvested and collected in separate polypropylene 96-well holding plates. Reagents from each of the IL-1β and IL-6 commercial kits (Perkin Elmer) were prepared and run according to the manufacturer's instructions. Subsequently, fluorescence signal detection in a microplate reader was measured (EnVision® Multilabel Reader, Perkin Elmer). Percentage inhibition was calculated per cytokine by normalizing the sample data to the high and low controls used within each plate (+/−LPS respectively). Percentage inhibition was then plotted against compound concentration and the 50% inhibitory concentration (IC50) was determined from the resultant concentration-response curve.

[2] = Hepatocyte stability assay, human; format: in vitro ADME; details: cryopreserved hepatocytes, 10 μM compound
In short: (§1)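 Cryopreserved hepatocytes (viability >70%) at 0.5×10^6 cells/mL in Leibovitz buffer, preincubated 10 min at 37 °C, then compound at 10 μM (0.1% DMSO) in duplicate; buffer-only incubations as control. Samples at 0-60 min quenched in acetonitrile, analysed by LC-MS/MS; half-life and CLint (μL min^−1 10^−6 cells) from ln % remaining versus time.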

[3] = test system: hepatocytes; experiment: Hepatocyte stability assay, human; format: in vitro ADME; details: 10 μM compound
In short: as §1

[4] = Hepatocyte stability assay, mouse; format: in vitro ADME; details: mouse, cryopreserved hepatocytes, 10 μM compound
In short: as §1

[5] = test system: hepatocytes; experiment: Hepatocyte stability assay, mouse; format: in vitro ADME; details: 10 μM compound
In short: as §1

[6] = test system: IL-1β; experiment: THP-1 AlphaLISA IL-1β cytokine assay; format: cell-based; details: Homo sapiens, differentiated THP-1 cells
In short: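 THP-1 cells differentiated 72 h with PMA, pre-incubated 30 min with compounds, stimulated 24 h with LPS, then 1 h with nigericin, all at 37 °C. Supernatant cytokine measured by AlphaLISA; % inhibition normalised to ±LPS controls and IC50 taken from concentration-response curves.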

[7] = test system: NRF2; experiment: NRF2 activation assay (DiscoverX PathHunter NRF2 translocation kit, U2OS cells); format: cell-based
In short: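 PathHunter U2OS cells, grown 24 h at 37 °C/5% CO2, treated 6 h with compound; NRF2 nuclear translocation read as enzyme-fragment-complementation chemiluminescence. Activation normalised to dimethyl fumarate high and untreated low controls; EC50 from concentration-response curve.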

[8] = Table 2, compounds of formula (II)
[9] = +GSH, Table 4, compounds of formula (II)
[10] = −GSH, Table 4, compounds of formula (II)

O=C(O)/C=C/C(=O)OC1(c2ccc(C(F)(F)F)cc2)CC(F)(F)C1 [Intermediate 32, (E)-4-(3,3-difluoro-1-(4-(trifluoromethyl)phenyl)cyclobutoxy)-4-oxobut-2-enoic acid]
IC50 [1, 8]: < 6 µM
half-life at 10 μM ([2]; Table 6, read-out: T½): 30 to 100 min
CIint ([3]; Table 6): +++ (+++ means >15-30)
half-life at 10 μM ([4]; Table 6, read-out: T½): 30 to 100 min
CIint ([5]; Table 6): +++ (+++ means >15-30)
IC50 [6, 8]: < 6 µM

O=C(O)/C=C/C(=O)OC1(c2cc(F)c(C(F)(F)F)c(F)c2)CCC1 [Intermediate 29, (E)-4-(1-(3,5-difluoro-4-(trifluoromethyl)phenyl)cyclobutoxy)-4-oxobut-2-enoic acid]
IC50 [1, 8]: < 6 µM
half-life at 10 μM ([2]; Table 6, read-out: T½): > 100 min
CIint ([3]; Table 6): ++++ (++++ means 5-15)
half-life at 10 μM ([4]; Table 6, read-out: T½): 30 to 100 min
CIint ([5]; Table 6): +++ (+++ means >15-30)
IC50 [6, 8]: < 6 µM

O=C(O)COC(=O)/C=C/C(=O)OC1(c2ccc(C(F)(F)F)cc2)CCC1 [Example 15, (E)-2-((4-oxo-4-(1-(4-(trifluoromethyl)phenyl)cyclobutoxy)but-2-enoyl)oxy) acetic acid]
IC50 ([1]; LPS then Nigericin, Table 1): 2.5 to 6.1 µM
half-life at 10 μM ([2]; Table 5, read-out: T½): 5 to 29 min
CIint ([3]; Table 5): +++ (+++ means 50-149)
half-life at 10 μM ([4]; Table 5, read-out: T½): < 5 min
CIint ([5]; Table 5): + (+ means >277)
EC50 ([7]; +GSH, Table 3): > 100 µM
NRF2 activation Emax ([7]; +GSH, normalised to dimethyl fumarate high control, Table 3): + (+ means >17.1-99)
EC50 ([7]; −GSH, Table 3): 2.1 to 6 µM
NRF2 activation Emax ([7]; −GSH, normalised to dimethyl fumarate high control, Table 3): +++ (+++ means 150-199%)
IC50 ([6]; LPS then Nigericin, Table 1): < 2.5 µM

O=C(O)/C=C/C(=O)OC1(c2ccc(OC(F)(F)F)cc2)CCC1 [Intermediate 30, (E)-4-oxo-4-(1-(4-(trifluoromethoxy)phenyl)cyclobutoxy)but-2-enoic acid]
IC50 [1, 8]: 6 to 30 µM
half-life at 10 μM ([2]; Table 6, read-out: T½): > 100 min
CIint ([3]; Table 6): ++++ (++++ means 5-15)
half-life at 10 μM ([4]; Table 6, read-out: T½): 30 to 100 min
CIint ([5]; Table 6): +++ (+++ means >15-30)
EC50 [7, 9]: 23 to 48.4 µM
NRF2 activation Emax [7, 9]: ++ (++ means >87-114%)
EC50 [7, 10]: < 23 µM
NRF2 activation Emax [7, 10]: +++ (+++ means >114-150%)
IC50 [6, 8]: < 6 µM

C[C@H]1C[C@](OC(=O)/C=C/C(=O)O)(c2ccc(C(F)(F)F)cc2)C1 (single isomer, unassigned) [Intermediate 33, (E)-4-((cis)-3-methyl-1-(4-(trifluoromethyl)phenyl)cyclobutoxy)-4-oxobut-2-enoic acid]
IC50 [1, 8]: < 6 µM
half-life at 10 μM ([2]; Table 6, read-out: T½): > 100 min
CIint ([3]; Table 6): ++++ (++++ means 5-15)
half-life at 10 μM ([4]; Table 6, read-out: T½): 30 to 100 min
CIint ([5]; Table 6): +++ (+++ means >15-30)
IC50 [6, 8]: < 6 µM

O=C(O)/C=C/C(=O)OC1(c2cc(Cl)c(F)c(Cl)c2)CCC1 [Intermediate 25, (E)-4-(1-(3,5-dichloro-4-fluorophenyl)cyclobutoxy)-4-oxobut-2-enoic acid]
IC50 [1, 8]: < 6 µM
half-life at 10 μM ([2]; Table 6, read-out: T½): > 100 min
CIint ([3]; Table 6): +++ (+++ means >15-30)
half-life at 10 μM ([4]; Table 6, read-out: T½): 30 to 100 min
CIint ([5]; Table 6): ++ (++ means >30-110)
EC50 [7, 9]: < 23 µM
NRF2 activation Emax [7, 9]: ++ (++ means >87-114%)
EC50 [7, 10]: < 23 µM
NRF2 activation Emax [7, 10]: ++++ (++++ means >150%)
IC50 [6, 8]: 6 to 30 µM

O=C(O)/C=C/C(=O)OC(c1ccc(C(F)(F)F)cc1)C(F)(F)F (single isomer, unassigned) [Intermediate 44, (E)-4-oxo-4-(2,2,2-trifluoro-1-(4-(trifluoromethyl)phenyl)ethoxy)but-2-enoic acid]
IC50 [1, 8]: < 6 µM
half-life at 10 μM ([2]; Table 6, read-out: T½): 5 to 29 min
CIint ([3]; Table 6): ++ (++ means >30-110)
half-life at 10 μM ([4]; Table 6, read-out: T½): < 5 min
CIint ([5]; Table 6): + (+ means >110-277)
IC50 [6, 8]: < 6 µM

C[C@H](OC(=O)/C=C/C(=O)O)c1ccc(C(F)(F)F)cc1 [Intermediate 19, (S,E)-4-oxo-4-(1-(4-(trifluoromethyl)phenyl)ethoxy)but-2-enoic acid]
IC50 [1, 8]: 6 to 30 µM
half-life at 10 μM ([2]; Table 6, read-out: T½): > 100 min
CIint ([3]; Table 6): ++++ (++++ means 5-15)
half-life at 10 μM ([4]; Table 6, read-out: T½): 5 to 29 min
CIint ([5]; Table 6): ++ (++ means >30-110)
EC50 [7, 9]: < 23 µM
NRF2 activation Emax [7, 9]: +++ (+++ means >114-150%)
EC50 [7, 10]: < 23 µM
NRF2 activation Emax [7, 10]: ++++ (++++ means >150%)
IC50 [6, 8]: 6 to 30 µM

O=C(O)/C=C/C(=O)OC1(c2ccc(C(F)(F)F)cc2)CSC1 [Intermediate 17, (E)-4-oxo-4-((3-(4-(trifluoromethyl)phenyl)thietan-3-yl)oxy)but-2-enoic acid]
IC50 [1, 8]: 6 to 30 µM
half-life at 10 μM ([2]; Table 6, read-out: T½): 5 to 29 min
CIint ([3]; Table 6): ++ (++ means >30-110)
half-life at 10 μM ([4]; Table 6, read-out: T½): 5 to 29 min
CIint ([5]; Table 6): + (+ means >110-277)
IC50 [6, 8]: 6 to 30 µM

O=C(O)/C=C/C(=O)OC1(c2cc(Cl)cc(OC(F)(F)F)c2)CCC1 [Intermediate 41, (E)-4-(1-(3-chloro-5-(trifluoromethoxy)phenyl)cyclobutoxy)-4-oxobut-2-enoic acid]
IC50 [1, 8]: 6 to 30 µM
half-life at 10 μM ([2]; Table 6, read-out: T½): > 100 min
CIint ([3]; Table 6): ++++ (++++ means 5-15)
half-life at 10 μM ([4]; Table 6, read-out: T½): 30 to 100 min
CIint ([5]; Table 6): ++ (++ means >30-110)
IC50 [6, 8]: 6 to 30 µM

O=C(O)CCOC(=O)/C=C/C(=O)OC1(c2ccc(C(F)(F)F)cc2)CCC1 [Example 16, (E)-3-(4-oxo-4-(1-(4-(trifluoromethyl)phenyl)cyclobutoxy)but-2-enoyloxy)propanoic acid]
IC50 ([1]; LPS then Nigericin, Table 1): < 2.5 µM
half-life at 10 μM ([2]; Table 5, read-out: T½): 5 to 29 min
CIint ([3]; Table 5): +++ (+++ means 50-149)
half-life at 10 μM ([4]; Table 5, read-out: T½): < 5 min
CIint ([5]; Table 5): + (+ means >277)
IC50 ([6]; LPS then Nigericin, Table 1): 2.5 to 6.1 µM

O=C(O)/C=C/C(=O)OC1(c2ccc(C(F)(F)F)cc2)COC1 [Intermediate 18, (E)-4-oxo-4-((3-(4-(trifluoromethyl)phenyl)oxetan-3-yl)oxy)but-2-enoic acid]
IC50 [1, 8]: 6 to 30 µM
half-life at 10 μM ([2]; Table 6, read-out: T½): 30 to 100 min
CIint ([3]; Table 6): ++ (++ means >30-110)
half-life at 10 μM ([4]; Table 6, read-out: T½): 30 to 100 min
CIint ([5]; Table 6): ++ (++ means >30-110)
IC50 [6, 8]: 6 to 30 µM
